Assay results as given in ChEMBL document CHEMBL4680348, “1,2,4-Thiadiazole acyclic nucleoside phosphonates as inhibitors of cysteine dependent enzymes cathepsin K and GSK-3β” (Bioorg Med Chem, 2021).

What was measured:
[1] = biological target: T1, Cathepsin K (Homo sapiens) (UniProt P43235); assay: Inhibition of recombinant human Cathepsin K expressed in Pichia pastoris X-33 assessed as residual activity at 10 uM using Z-Gly-Pro-Arg-AMC as substrate preincubated for 10 mins followed by substrate addition measured after 30 mins by fluorescence based microplate reader assay; details: time 40.0 min
T1 sequence (whole entry): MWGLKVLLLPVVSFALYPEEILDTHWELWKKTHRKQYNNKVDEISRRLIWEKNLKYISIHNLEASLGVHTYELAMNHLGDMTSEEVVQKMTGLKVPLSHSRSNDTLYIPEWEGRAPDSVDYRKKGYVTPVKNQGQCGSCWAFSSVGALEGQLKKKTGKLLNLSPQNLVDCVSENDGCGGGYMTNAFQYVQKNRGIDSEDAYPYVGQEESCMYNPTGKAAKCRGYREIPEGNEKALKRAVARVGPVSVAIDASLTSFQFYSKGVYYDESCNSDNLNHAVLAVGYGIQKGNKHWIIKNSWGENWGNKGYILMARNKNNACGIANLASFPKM

[2] = system: CCRF-CEM; assay: Cytotoxicity against human CCRF-CEM cells assessed as cell viability at 10 uM incubated for 72 hrs by CellTiter-Glo luminescence based assay; type: functional; details: read-out: Activity
[3] = system: CCRF-CEM; assay: Cytotoxicity against human CCRF-CEM cells assessed as cell viability at 100 uM incubated for 72 hrs by CellTiter-Glo luminescence based assay; type: functional; details: read-out: Activity
[4] = system: HL-60; assay: Cytotoxicity against human HL-60 cells assessed as cell viability at 10 uM incubated for 72 hrs by CellTiter-Glo luminescence based assay; type: functional; details: read-out: Activity
[5] = system: HL-60; assay: Cytotoxicity against human HL-60 cells assessed as cell viability at 100 uM incubated for 72 hrs by CellTiter-Glo luminescence based assay; type: functional; details: read-out: Activity
[6] = system: HeLa S3; assay: Cytotoxicity against human HeLa S3 cells assessed as cell viability at 10 uM incubated for 72 hrs by CellTiter-Glo luminescence based assay; type: functional; details: read-out: Activity
[7] = system: HeLa S3; assay: Cytotoxicity against human HeLa S3 cells assessed as cell viability at 100 uM incubated for 72 hrs by CellTiter-Glo luminescence based assay; type: functional; details: read-out: Activity
[8] = system: HepG2; assay: Cytotoxicity against human HepG2 cells assessed as cell viability at 10 uM incubated for 72 hrs by CellTiter-Glo luminescence based assay; type: functional; details: read-out: Activity
[9] = system: HepG2; assay: Cytotoxicity against human HepG2 cells assessed as cell viability at 100 uM incubated for 72 hrs by CellTiter-Glo luminescence based assay; type: functional; details: read-out: Activity
[10] = system: SH-SY5Y; assay: Cytotoxicity against human SH-SY5Y cells assessed as cell viability at 10 uM incubated for 72 hrs by CellTiter-Glo luminescence based assay; type: functional; details: read-out: Activity
[11] = system: SH-SY5Y; assay: Cytotoxicity against human SH-SY5Y cells assessed as cell viability at 100 uM incubated for 72 hrs by CellTiter-Glo luminescence based assay; type: functional; details: read-out: Activity
[12] = Cytotoxicity against human NHDF cells assessed as cell viability at 10 uM incubated for 72 hrs by CellTiter-Glo luminescence based assay; details: read-out: Activity
[13] = Cytotoxicity against human NHDF cells assessed as cell viability at 100 uM incubated for 72 hrs by CellTiter-Glo luminescence based assay; details: read-out: Activity
[14] = biological target: Glycogen synthase kinase-3 beta (Homo sapiens, UniProt P49841); assay: Inhibition of human recombinant GSK3beta using GSK3 peptide as substrate preincubated for 15 mins followed by ATP addition and measured after 90 mins by ADP-Glo kinase assay
Glycogen synthase kinase-3 beta, sequence (P49841 whole entry): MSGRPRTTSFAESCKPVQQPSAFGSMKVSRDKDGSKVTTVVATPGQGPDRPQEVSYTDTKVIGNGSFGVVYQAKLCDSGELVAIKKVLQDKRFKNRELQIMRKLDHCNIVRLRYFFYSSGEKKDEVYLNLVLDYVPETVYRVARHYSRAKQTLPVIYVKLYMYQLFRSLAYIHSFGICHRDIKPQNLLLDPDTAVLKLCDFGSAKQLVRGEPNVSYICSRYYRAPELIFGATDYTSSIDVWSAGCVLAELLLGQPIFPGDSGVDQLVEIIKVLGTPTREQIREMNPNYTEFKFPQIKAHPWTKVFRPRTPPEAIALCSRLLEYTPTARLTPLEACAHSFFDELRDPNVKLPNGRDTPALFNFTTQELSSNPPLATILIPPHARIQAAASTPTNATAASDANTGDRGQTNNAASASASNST

**Q.** What does the source list for `O=C(Nc1nc(=O)n(C[C@@H](CO)OCP(=O)(O)O)s1)OCC1c2ccccc2-c2ccccc21`?
**A.** Activity [1]: 85.5%; viability at 10 µM [2]: 88%; viability at 100 µM [3]: 119%; viability at 10 µM [4]: 93%; viability at 100 µM [5]: 100%; viability at 10 µM [6]: 98%; viability at 100 µM [7]: 99%; viability at 10 µM [8]: 106%; viability at 100 µM [9]: 88%; viability at 10 µM [10]: 99%; viability at 100 µM [11]: 93%; viability at 72 h, 10 µM [12]: 98%; viability at 72 h, 100 µM [13]: 95%; IC50 [14]: > 10 µM

**Q.** Which Activity [1] does the source give for `CC(C)OP(=O)(COCCOc1nsc(/N=C/N(C)C)n1)OC(C)C` here?
**A.** 52.9%

**Q.** What about the viability at 10 µM [2] of the same molecule?
**A.** 106%

**Q.** What about the viability at 100 µM [3] of the same molecule?
**A.** 93%

**Q.** What about the viability at 10 µM [4] of the same molecule?
**A.** 97%

**Q.** And the viability at 100 µM [5]?
**A.** 98%

**Q.** And the viability at 10 µM [6]?
**A.** 101%

**Q.** What about the viability at 100 µM [7] of the same molecule?
**A.** 89%

**Q.** What about the viability at 10 µM [8] of the same molecule?
**A.** 99%

**Q.** What about the viability at 100 µM [9] of the same molecule?
**A.** 90%

**Q.** What about the viability at 10 µM [10] of the same molecule?
**A.** 101%

**Q.** What about the viability at 100 µM [11] of the same molecule?
**A.** 87%

**Q.** What about the viability at 72 h, 10 µM [12] of the same molecule?
**A.** 101%

**Q.** What about the viability at 72 h, 100 µM [13] of the same molecule?
**A.** 99%

**Q.** What about the IC50 [14] of the same molecule?
**A.** > 10 µM

**Q.** With `O=C(Nc1nc(=O)n(CCOCP(=O)(O)O)s1)c1ccccc1` as the molecule, how does the Activity [1] read?
**A.** 90.3%

**Q.** And the viability at 10 µM [2]?
**A.** 98%

**Q.** And the viability at 100 µM [3]?
**A.** 100%

**Q.** What about the viability at 10 µM [4] of the same molecule?
**A.** 102%

**Q.** And the viability at 100 µM [5]?
**A.** 113%

**Q.** And the viability at 10 µM [6]?
**A.** 101%

**Q.** And the viability at 100 µM [7]?
**A.** 101%

**Q.** What about the viability at 10 µM [8] of the same molecule?
**A.** 100%

**Q.** And the viability at 100 µM [9]?
**A.** 100%

**Q.** What about the viability at 10 µM [10] of the same molecule?
**A.** 104%

**Q.** What about the viability at 100 µM [11] of the same molecule?
**A.** 105%

**Q.** And the viability at 72 h, 10 µM [12]?
**A.** 103%

**Q.** And the viability at 72 h, 100 µM [13]?
**A.** 102%

**Q.** What about the IC50 [14] of the same molecule?
**A.** > 10 µM

**Q.** For `Cc1cnc(-c2cnc(NCCNc3ccc(C#N)cn3)nc2-c2ccc(Cl)cc2Cl)[nH]1` [LADUVIGLUSIB], which viability at 10 µM [2] is on record?
**A.** 28%

**Q.** And the viability at 10 µM [4]?
**A.** 119%

**Q.** And the viability at 10 µM [6]?
**A.** 67%

**Q.** And the viability at 10 µM [8]?
**A.** 86%

**Q.** What about the viability at 10 µM [10] of the same molecule?
**A.** 77%

**Q.** What about the viability at 72 h, 10 µM [12] of the same molecule?
**A.** 53%

**Q.** Which Activity [1] does the source give for `CC(C)OP(=O)(CO[C@H](CO)Cn1sc(NC(=O)c2ccccc2)nc1=O)OC(C)C` here?
**A.** 92.9%

**Q.** And the viability at 10 µM [2]?
**A.** 86%

**Q.** What about the viability at 100 µM [3] of the same molecule?
**A.** 97%

**Q.** What about the viability at 10 µM [4] of the same molecule?
**A.** 106%

**Q.** And the viability at 100 µM [5]?
**A.** 118%

**Q.** And the viability at 10 µM [6]?
**A.** 97%

**Q.** And the viability at 100 µM [7]?
**A.** 105%

**Q.** And the viability at 10 µM [8]?
**A.** 109%

**Q.** And the viability at 100 µM [9]?
**A.** 99%

**Q.** What about the viability at 10 µM [10] of the same molecule?
**A.** 100%

**Q.** And the viability at 100 µM [11]?
**A.** 97%

**Q.** What about the viability at 72 h, 10 µM [12] of the same molecule?
**A.** 103%

**Q.** And the viability at 72 h, 100 µM [13]?
**A.** 104%

**Q.** And the IC50 [14]?
**A.** > 10 µM

**Q.** For `O=C(Nc1nc(=O)n(CCOCP(=O)(O)O)s1)OCC1c2ccccc2-c2ccccc21`, which Activity [1] is on record?
**A.** 67%

**Q.** And the viability at 10 µM [2]?
**A.** 85%

**Q.** And the viability at 100 µM [3]?
**A.** 90%

**Q.** What about the viability at 10 µM [4] of the same molecule?
**A.** 102%

**Q.** And the viability at 100 µM [5]?
**A.** 106%

**Q.** What about the viability at 10 µM [6] of the same molecule?
**A.** 97%

**Q.** What about the viability at 100 µM [7] of the same molecule?
**A.** 102%

**Q.** What about the viability at 10 µM [8] of the same molecule?
**A.** 105%

**Q.** And the viability at 100 µM [9]?
**A.** 103%

**Q.** What about the viability at 10 µM [10] of the same molecule?
**A.** 102%

**Q.** What about the viability at 100 µM [11] of the same molecule?
**A.** 99%

**Q.** And the viability at 72 h, 10 µM [12]?
**A.** 93%

**Q.** And the viability at 72 h, 100 µM [13]?
**A.** 84%

**Q.** And the IC50 [14]?
**A.** > 10 µM

**Q.** Which results are given for `CC(C)OP(=O)(COCCOc1nsc(N)n1)OC(C)C`?
**A.** Activity [1]: 78.3%; viability at 10 µM [2]: 114%; viability at 100 µM [3]: 103%; viability at 10 µM [4]: 103%; viability at 100 µM [5]: 108%; viability at 10 µM [6]: 97%; viability at 100 µM [7]: 98%; viability at 10 µM [8]: 100%; viability at 100 µM [9]: 99%; viability at 10 µM [10]: 98%; viability at 100 µM [11]: 55%; viability at 72 h, 10 µM [12]: 104%; viability at 72 h, 100 µM [13]: 114%; IC50 [14]: > 10 µM

**Q.** Which viability at 10 µM [2] does the source give for `O=c1sn(-c2cccc3ccccc23)c(=O)n1Cc1ccccc1` [TIDEGLUSIB] here?
**A.** 30%

**Q.** What about the viability at 10 µM [4] of the same molecule?
**A.** 34%

**Q.** What about the viability at 10 µM [6] of the same molecule?
**A.** 69%

**Q.** And the viability at 10 µM [8]?
**A.** 92%

**Q.** And the viability at 10 µM [10]?
**A.** 80%

**Q.** What about the viability at 72 h, 10 µM [12] of the same molecule?
**A.** 57%
